Measured values: patent US7244586B2, “DNA molecules encoding ligand-gated ion channels from Drosophila melanogaster” (Merck & Co., Inc., priority 2000, dated 2007)

System: DmLGIC AC15
Conditions: AC15 clone expressed in Xenopus oocyte
Protocol: Full length cDNA clones corresponding to the selected RT-PCR sequences were used as template for synthesis of in vitro transcribed RNA (Ambion Inc.). The capped cRNA transcripts are synthesized using appropriate oligonucleotide primers and the mMESSAGE mMACHINE in vitro RNA transcription kit from Ambion. Xenopus laevis oocytes were prepared and injected using standard methods as described (Arena et al., 1991, Mol. Pharmacol. 40: 368–374; Arena et al, 1992, Mol. Brain Res. 15: 339–348). Adult female Xenopus laevis were anesthetized with 0.17% tricaine methanesulfonate and the ovaries were surgically removed and placed in a dish consisting of (mM): NaCl 82.5, KCl 2, MgCl2 1, CaCl2 1.8, HEPES 5, adjusted to pH 7.5 with NaOH (OR-2). Ovarian lobes were broken open, rinsed several times, and gently shaken in OR-2 containing 0.2% collagenase (Sigma, Type 1A) for 2–5 hours. When approximately 50% of the follicular layers were removed, Stage V and VI oocytes were selected and placed in media consisting of (mM): NaCl 86, KCl 2, MgCl2 1, CaCl2 1.8, HEPES 5, Na pyruvate 2.5, theophylline 0.5, gentamicin 0.1 adjusted to pH 7.5 with NaOH (ND-96) for 24–48 hours before injection. For most experiments, oocytes were injected with 10 ng of cRNA in 50 nl of RNase free water. Control oocytes were injected with 50 nl of water. […]

## NCCc1c[nH]cn1 [histamine]
  response of functional single channel protein to addition of histamine: responds to the addition of histamine
